{
  "source": "patent US20260130973A1",
  "about": "“COMPOSITIONS AND METHODS FOR DEGRADATION OF LIPOFUSCIN CYCLORETINAL BY MSP1” (THE TEXAS A&M UNIVERSITY SYSTEM, priority 2022, published 2026)",
  "assay": "in vitro",
  "type": "cell-based",
  "details": "human, arpe-19 cells, EC50 (cytotoxicity)",
  "experimental": "The liposomal complexes were prepared as follows. Cycloretinal (10 mg), β-Ionone (20 mg), and 2,4-Dimethylbenzaldehyde (20 mg) were dissolved separately in ethanol (1 mL). Glyoxal (5.80 mg), methylglyoxal (7.21 mg), and β-cyclocitral (15.2 mg) were dissolved separately in chloroform (1 mL). A liposome solution of cholesterol (112 mg), Tween 80 (504 mg), and L-α-phosphatidylcholine (730 mg) were dissolved in 16 mL of chloroform. Liposome solution (2 mL) was added to each of the compounds. The solvents were removed under vacuum and charged with nitrogen. Each of the flasks were then mixed with 5 mL of water and stirred at 60° C. for 1 h. Each solution was placed on ice and sonicated with a probe sonicator (15 seconds on/15 seconds off) for 5 min. The solutions were centrifuged at 11,000×g for 30 min and filtered through a 0.2 μm filter. Each sample (10 μL) was added to 1 mL ethanol and measured by absorption via UV-Vis spectroscopy. […]\nFollowing 24 hour incubation with the liposomal complexes, light induced cell damage was measured by exposing cells to 10 min of irradiation (70 W lamp) through a 430 nm bandpass filter (Thor labs, 430±2 nm). […]\nCell viability was assessed with the MTT cell proliferation assay. […] The absorbance was subsequently evaluated at 570 nm utilizing a microplate reader (quant absorbance plate reader, BioTek Instruments Inc.) […]",
  "data": [
    {"compound": "CC(C=CC1=C(C)CCCC1(C)C)=CC=CC1=CC=C(C=O)C(C)(C=CC=C(C)C=CC2=C(C)CCCC2(C)C)C1", "note": "(stereo not shown) [cycloretinal]", "values": [
      {"measurement": "CC50 at 24 h", "value": "93 ± 6.1", "unit": "µM"}
    ]}
  ]
}
